This is an account of results in patent publication US20260355196A1, “INHIBITORS AND DEGRADERS OF PIP4K PROTEIN” (Larkspur Biosciences, Inc., priority 2023, published 2026).

The first assay deals with T1, PIP4K2C (Homo sapiens, UniProt Q8TBX8).
T1 sequence (Q8TBX8 1-421): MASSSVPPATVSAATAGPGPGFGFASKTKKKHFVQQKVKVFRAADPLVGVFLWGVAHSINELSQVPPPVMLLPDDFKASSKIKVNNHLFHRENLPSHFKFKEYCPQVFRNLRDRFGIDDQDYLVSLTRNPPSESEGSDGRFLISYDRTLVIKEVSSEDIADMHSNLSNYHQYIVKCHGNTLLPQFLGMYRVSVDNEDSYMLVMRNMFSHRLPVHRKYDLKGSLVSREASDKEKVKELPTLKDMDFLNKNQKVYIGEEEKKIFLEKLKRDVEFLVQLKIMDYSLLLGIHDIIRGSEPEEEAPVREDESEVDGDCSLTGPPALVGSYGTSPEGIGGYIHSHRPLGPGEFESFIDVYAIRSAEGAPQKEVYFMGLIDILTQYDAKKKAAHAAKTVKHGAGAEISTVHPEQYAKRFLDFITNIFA
The experiment in a line: HiBiT PIP4K2C degradation assay in MOLT-4 cells (endogenous PIP4K2C C-terminally tagged with HiBiT). As to conditions: 6 hours of incubation time, rather than 24 hours; MOLT-4, top concentration 10 micromolar; read-out: HiBIT-degradation MOLT4 PIP4k2C DC50 (6 hours, marked *). Also on record: untagged in primary human PBMCs and monocyte-derived dendritic cells. The assay is classed as cell-based. An outline of the steps:
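DC50 derived by Hill fit of luminescence from Nano-Glo HiBiT lytic detection. Cells were HiBiT knock-in MOLT-4 (C-terminal tag on endogenous PIP4K2C), exposed 6 h or 24 h at 37 C to compound, top concentration 10 micromolar, 3-fold steps, 10 points, duplicates.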
As for `O=C1CCC(n2c(=O)oc3cc(N4CCC(CCN5CCN(C(=O)[C@@H]6CCC[C@H](Nc7ncc(F)c(-c8cccc(-n9ccccc9=O)c8)n7)C6)CC5)CC4)ccc32)C(=O)N1` (relative stereo) [Compound 386, 3-(6-(4-(2-(4-(cis-3-((5-fluoro-4-(3-(2-oxopyridin-1(2H)-yl)phenyl)pyrimidin-2-yl)amino)cyclohexane-1-carbonyl)piperazin-1-yl)ethyl)piperidin-1-yl)-2-oxobenzo[d]oxazol-3 (2H)-yl)piperidine-2,6-dione], the half-maximal degradation concentration (DC50) is under 500 nM.

For `O=C1CCC(Nc2ccc(N3CCN([C@H]4CC[C@H](C(=O)N[C@H]5CC[C@H](Nc6ncc(F)c(-c7cccc(N8CCOC8=O)c7)n6)CC5)CC4)CC3)c(F)c2)C(=O)N1` (stereo partly drawn) [Compound 411, trans-(1r,4R)-4-(4-(4-((2,6-dioxopiperidin-3-yl)amino)-2-fluorophenyl)piperazin-1-yl)-N-((1r,4R)-4-((5-fluoro-4-(3-(2-oxooxazolidin-3-yl)phenyl)pyrimidin-2-yl)amino)cyclohexyl)cyclohexane-1-carboxamide], the half-maximal degradation concentration (DC50) was over 5000 nM.

Turning to `O=C1CCC(Nc2ccc(N3CCC(N4CCC(C(=O)N[C@H]5CC[C@H](Nc6ncc(F)c(-c7cccc(N8CCOCC8=O)c7)n6)CC5)CC4)C(F)(F)C3)c(F)c2)C(=O)N1` (stereo partly drawn) [Compound 501, trans-1′-(4-((2,6-dioxopiperidin-3-yl)amino)-2-fluorophenyl)-3′,3′-difluoro-N-(4-((5-fluoro-4-(3-(3-oxomorpholino)phenyl)pyrimidin-2-yl)amino)cyclohexyl)-[1,4′-bipiperidine]-4-carboxamide], the 50% degradation concentration (DC50) is under 500 nM.

Turning to `O=C1CC[C@@H](Nc2ccc(N3CCN([C@H]4CC[C@H](NC(=O)[C@H]5CC[C@H](Nc6ncc(F)c(-c7cccc(-n8ccccc8=O)c7)n6)CC5)CC4)CC3)c(F)c2)C(=O)N1` (single isomer, unassigned) [Compound 420], the DC50 is under 500 nM.

In the case of `O=C1CCC(Nc2ccc(N3CCN(CC4CCN(C(=O)[C@H]5CC[C@H](Nc6ncc(F)c(-c7cccc(N8CCCCC8)c7)n6)CC5)CC4)CC3)c(F)c2)C(=O)N1` (stereo partly drawn) [Compound 513, trans-3-((3-fluoro-4-(4-((1-(4-((5-fluoro-4-(3-(piperidin-1-yl)phenyl)pyrimidin-2-yl)amino)cyclohexane-1-carbonyl)piperidin-4-yl)methyl)piperazin-1-yl)phenyl)amino)piperidine-2,6-dione], the DC50 was under 500 nM.

With `O=C1CCC(Nc2ccc(N3CCN([C@H]4CC[C@H](NC(=O)[C@H]5CC[C@H](Nc6ncc(F)c(-c7cccc(-n8ccccc8=O)c7)n6)CC5)CC4)CC3)c(F)c2)C(=O)N1` (stereo partly drawn) [Compound 381, trans-(1r,4R)—N-((1r,4R)-4-(4-(4-((2,6-dioxopiperidin-3-yl)amino)-2-fluorophenyl)piperazin-1-yl)cyclohexyl)-4-((5-fluoro-4-(3-(2-oxopyridin-1(2H)-yl)phenyl)pyrimidin-2-yl)amino)cyclohexane-1-carboxamide], the 50% degradation concentration (DC50) is under 500 nM.

Consider `O=C1CCC(Nc2ccc(N3CCN([C@H]4CC[C@H](NC(=O)[C@H]5CC[C@H](Nc6ncc(F)c(-c7cccc(-c8ccc[nH]c8=O)c7)n6)CC5)CC4)CC3)c(F)c2)C(=O)N1` (stereo partly drawn) [Compound 382, trans-N-(trans-4-(4-(4-((2,6-dioxopiperidin-3-yl)amino)-2-fluorophenyl)piperazin-1-yl)cyclohexyl)-4-((5-fluoro-4-(3-(2-oxo-1,2-dihydropyridin-3-yl)phenyl)pyrimidin-2-yl)amino)cyclohexane-1-carboxamide], for which the 50% degradation concentration (DC50) is under 500 nM.

On to `O=C1CCC(Nc2ccc(N3CCN(CC4(O)CCN(C(=O)[C@H]5CC[C@H](Nc6ncc(F)c(-c7cccc(C8CC8)c7)n6)CC5)CC4)CC3)c(F)c2)C(=O)N1` (stereo partly drawn) [Compound 492, trans-3-((4-(4-((1-(4-((4-(3-cyclopropylphenyl)-5-fluoropyrimidin-2-yl)amino)cyclohexane-1-carbonyl)-4-hydroxypiperidin-4-yl)methyl)piperazin-1-yl)-3-fluorophenyl)amino)piperidine-2,6-dione], for which the 50% degradation concentration (DC50) is under 500 nM.

With `O=C1CC[C@H](Nc2ccc(N3CCC(N4CCC(C(=O)N[C@H]5CC[C@H](Nc6ncc(F)c(-c7cccc(N8CCCOC8=O)c7)n6)CC5)CC4)CC3)c(F)c2)C(=O)N1` [Compound 542, 1′-(4-(((S)-2,6-dioxopiperidin-3-yl)amino)-2-fluorophenyl)-N-((trans)-4-((5-fluoro-4-(3-(2-oxo-1,3-oxazinan-3-yl)phenyl)pyrimidin-2-yl)amino)cyclohexyl)-[1,4′-bipiperidine]-4-carboxamide], the DC50 is under 500 nM.

On to `O=C1CCC(Nc2ccc(C3CCN([C@H]4CC[C@H](C(=O)N[C@H]5CC[C@H](Nc6ncc(F)c(-c7ccnc(N8CCCOC8=O)c7)n6)CC5)CC4)CC3)c(F)c2)C(=O)N1` (stereo partly drawn) [Compound 572, trans-(1r,4R)-4-(4-(4-((2,6-dioxopiperidin-3-yl)amino)-2-fluorophenyl)piperidin-1-yl)-N-((1r,4R)-4-((5-fluoro-4-(2-(2-oxo-1,3-oxazinan-3-yl)pyridin-4-yl)pyrimidin-2-yl)amino)cyclohexyl)cyclohexane-1-carboxamide], for which the DC50 was under 500 nM.

Consider `O=C1CCC(Nc2ccc(N3CCC(OC4CCN(C(=O)[C@H]5CC[C@H](Nc6ncc(F)c(-c7cccc(N8CCCCC8=O)c7)n6)CC5)CC4)CC3)c(F)c2)C(=O)N1` (stereo partly drawn) [Compound 413, trans-3-((3-fluoro-4-(4-((1-(4-((5-fluoro-4-(3-(2-oxopiperidin-1-yl)phenyl)pyrimidin-2-yl)amino)cyclohexane-1-carbonyl)piperidin-4-yl)oxy)piperidin-1-yl)phenyl)amino)piperidine-2,6-dione], for which the DC50 is under 500 nM.

The same assay, now with this note: 24 hours incubation, MOLT-4, top concentration 10 micromolar; read-out: HiBIT-degradation MOLT4 PIP4k2C 24 hours DC50.
In the case of `Cn1c(=O)n(C2CCC(=O)NC2=O)c2ccc(C3CCN(C4CCN(CC(=O)N5CCC(Nc6ncc(Cl)c(-c7cccc(-c8ccccc8)c7)n6)CC5)CC4)CC3)cc21` (centres unmarked) [Compound 72, 3-(5-(1′-(2-(4-((4-([1,1′-biphenyl]-3-yl)-5-chloropyrimidin-2-yl)amino)piperidin-1-yl)-2-oxoethyl)-[1,4′-bipiperidin]-4-yl)-3-methyl-2-oxo-2,3-dihydro-1H-benzo[d]imidazol-1-yl)piperidine-2,6-dione], the half-maximal degradation concentration (DC50) is under 500 nM.

For `O=C1CCC(Nc2ccc(C3CCN(CCN4CCC(C(=O)N5CCC(Nc6ncc(Cl)c(-c7cccc(-c8ccccc8)c7)n6)CC5)CC4)CC3)cc2)C(=O)N1` (centres unmarked) [Compound 74, 3-((4-(1-(2-(4-(4-((4-([1,1′-biphenyl]-3-yl)-5-chloropyrimidin-2-yl)amino)piperidine-1-carbonyl)piperidin-1-yl)ethyl)piperidin-4-yl)phenyl)amino)piperidine-2,6-dione], the half-maximal degradation concentration (DC50) is under 500 nM.

For the molecule `O=C1CCC(Nc2ccc(C3CCN(CCC4CCN(C(=O)[C@H]5CCC[C@@H](Nc6ncc(F)c(-c7cccc(-n8ccccc8=O)c7)n6)C5)CC4)CC3(F)F)c(F)c2)C(=O)N1` (stereo partly drawn) [Compound 311, 3-((4-(3,3-difluoro-1-(2-(1-((1S,3R)-3-((5-fluoro-4-(3-(2-oxopyridin-1(2H)-yl)phenyl)pyrimidin-2-yl)amino)cyclohexane-1-carbonyl)piperidin-4-yl)ethyl)piperidin-4-yl)-3-fluorophenyl)amino)piperidine-2,6-dione], the DC50 is under 500 nM.

Regarding `O=C1CCC(N2Cc3cc(OC4CCN(C(=O)CN5CCN(C(=O)[C@H]6CCC[C@@H](Nc7ncc(Cl)c(-c8cccc(-c9ccccc9)c8)n7)C6)CC5)CC4)ccc3C2=O)C(=O)N1` (relative stereo) [Compound 82, cis-3-(5-((1-(2-(4-(3-((4-([1,1′-biphenyl]-3-yl)-5-chloropyrimidin-2-yl)amino)cyclohexane-1-carbonyl)piperazin-1-yl)acetyl)piperidin-4-yl)oxy)-1-oxoisoindolin-2-yl)piperidine-2,6-dione], the DC50 was under 500 nM.

Take `O=C1CCC(Nc2ccc(N3CCC(N4CCC(C(=O)N[C@H]5CC[C@H](Nc6ncc(Cl)c(-c7cccc(-c8ccc(F)cc8)c7)n6)CC5)CC4)CC3)cc2)C(=O)N1` (stereo partly drawn) [Compound 285, trans-N-(4-((5-chloro-4-(4′-fluoro-[1,1′-biphenyl]-3-yl)pyrimidin-2-yl)amino)cyclohexyl)-1′-(4-((2,6-dioxopiperidin-3-yl)amino)phenyl)-[1,4′-bipiperidine]-4-carboxamide]: the 50% degradation concentration (DC50) is under 500 nM.

Staying with this assay, now noted: read-out: HiBIT-degradation MOLT4 PIP4k2C DC50 (6 hours, marked *); 6 hours of incubation time, rather than 24 hours; MOLT-4, top concentration 10 micromolar.
In the case of `O=C1CCC(Nc2ccc(C3CCN(CCC4(O)CCN(C(=O)O[C@H]5CC[C@H](Nc6ncc(F)c(-c7cccc(-n8ccccc8=O)c7)n6)CC5)CC4)CC3)c(F)c2)C(=O)N1` (stereo partly drawn) [Compound 641, trans-4-((5-fluoro-4-(3-(2-oxopyridin-1 (2H)-yl)phenyl)pyrimidin-2-yl)amino)cyclohexyl 4-(2-(4-(4-((2,6-dioxopiperidin-3-yl)amino)-2-fluorophenyl)piperidin-1-yl)ethyl)-4-hydroxypiperidine-1-carboxylate], the half-maximal degradation concentration (DC50) was under 500 nM.

A word on the DC50: it is the concentration giving 50% degradation.
